This note sets out measurements from patent US10821115B2, “Compounds that inhibit Mcl-1 protein” (priority 2017, dated 2020).

In assay [1] the target is recombinant human Mcl-1 (residues 171-327) / Bim interaction (Homo sapiens (Human), UniProt Q07820). The assay is described as follows: biochemical. It counts as binding. Conditions: read-out: Mcl-1 HTRF IC50. On the technique in general: In TR-FRET formats the signal depends on donor and acceptor labels being close together.
The subject of assay [2] is human multiple myeloma cell line, OPM-2. Description: Cell viability assay (OPM-2 10 FBS), CellTiter-Glo. It counts as cell-based. In short, it runs like this:
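3000 cells/well, RPMI 1640 + 10% FBS; serial compound dilutions, 16 h, 37 °C/5% CO2.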
(In general: ATP-based viability assays read luminescence as a measure of living cells.)

Where [3] appears, read: 0.1 nM Mcl-1(171-327), 0.05 nM biotin-Bim (51-76).
[4] abbreviates: Homo sapiens, OPM-2, 16 h, read-out: OPM-2 10% FBS IC50 IP, OPM-2 cells, 10% FBS, 16 h incubation.
Where [5] appears, read: TR-FRET, Mcl-1(171-327) / biotin-Bim (51-76).
[6] abbreviates: Homo sapiens, OPM-2, 16 h, read-out: OPM-2 10% FBS IC50 IP, OPM-2 cells, 10% FBS, 16 h, CellTiter-Glo.
Where [7] appears, read: read-out: OPM-2 10% FBS IC50 IP, OPM-2 cells, 10% FBS, 16 h, CellTiter-Glo.

pIC50: −log10 of the molar value. Read-outs that look alike come from different tables or passages of the source.

Sequence of recombinant human Mcl-1 (residues 171-327) / Bim interaction (Q07820 171-327): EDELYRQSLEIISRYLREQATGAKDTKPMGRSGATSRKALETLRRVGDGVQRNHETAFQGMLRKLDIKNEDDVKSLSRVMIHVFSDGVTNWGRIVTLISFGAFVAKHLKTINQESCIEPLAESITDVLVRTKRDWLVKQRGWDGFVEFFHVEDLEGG

`CCO[C@@]1(CN2CCC(OC)CC2)/C=C/C[C@H](C)[C@@H](C)S(=O)(=O)NC(=O)c2ccc3c(c2)N(C[C@@H]2CC[C@H]21)C[C@@]1(CCCc2cc(Cl)ccc21)CO3` [Example 113, (1S,3′R,6′R,7′S,8′E,11′S,12′R)-6-chloro-7′-ethoxy-7′-((4-methoxy-1-piperidinyl)methyl)-11′,12′-dimethyl-3,4-dihydro-2H,15′H-spiro[naphthalene-1,22′-[20]oxa[13]thia[1,14]diazatetracyclo [14.7.2.0~3,6~.0~19,24~]pentacosa[8,16,18,24]tetraen]-15′-one 13′,13′-dioxide]: the pIC50 (commonly the negative decadic logarithm of the IC50, by convention in mol/L) in assay [1] (setting [3]) was 8.92; in assay [2] (setting [4]) it was 5.88.
For “(1S,3′R,6′R,7′S,8′E, 11′S,12′R)-6-chloro-12′-(2-chloroethyl)-7′-((9aS)-hexahydropyrazino[2,1-c][1,4]oxazin-8(1H)-ylmethyl)-7′-methoxy-11′-methyl-3,4-dihydro-2H,15′H-spiro[naphthalene-1,22′-[20]oxa[13]thia[1,14]diazatetracyclo[14.7.2.0-3,6˜.0˜19,24˜]pentacosa[8,16,18,24]tetraen]-15′-one 13′,13′-dioxide [Example 366]”, the pIC50 in assay [1] (setting [3]) was 9.61; in assay [2] (read-out: OPM-2 10% FBS IC50 IP, OPM-2 cells, 10% FBS, 16 h incubation), 6.88.
In the case of `C[C@@H]1[C@@H](C)C/C=C/[C@@](O)(c2nccn2C)[C@@H]2CC[C@H]2CN2C[C@@]3(CCCc4cc(Cl)ccc43)COc3ccc(cc32)C(=O)NS1(=O)=O` [Example 100199, (1S,3′R,6′R,7′S,8′E,11′S,12′R)-6-chloro-7′-hydroxy-11′,12′-dimethyl-7′-(1-methyl-1H-imidazol-2-yl)-3,4-dihydro-2H,15′H-spiro[naphthalene-1,22′-[20]oxa[13]thia[1,14]diazatetracyclo [14.7.2.0~3,6~.0~19,24~]pentacosa[8,16,18,24]tetraen]-15′-one 13′,13′-dioxide], the pIC50 in assay [1] (setting [5]) was 9.78; in assay [2] (setting [6]), 6.83.
For `C[C@@H]1[C@@H](C)C/C=C/[C@@](O)(c2ccccn2)[C@@H]2CC[C@H]2CN2C[C@@]3(CCCc4cc(Cl)ccc43)COc3ccc(cc32)C(=O)NS1(=O)=O` (single isomer, unassigned) [Example 100181], in that order: 9.27 and 6.65.
For `CO[C@@]1(CCN2CCCCC2)/C=C/C[C@H](C)[C@@H](C)S(=O)(=O)NC(=O)c2ccc3c(c2)N(C[C@@H]2CC[C@H]21)C[C@@]1(CCCc2cc(Cl)ccc21)CO3` [Example 100428, (1S,3′R,6′R,7′S,8′E,11′S,12′R)-6-chloro-7′-methoxy-11′,12′-dimethyl-7′-(2-(1-piperidinyl)ethyl)-3,4-dihydro-2H,15′H-spiro[naphthalene-1,22′-[20]oxa[13]thia[1,14]diazatetracyclo [14.7.2.0~3,6~.0~19,24~]pentacosa[8,16,18,24]tetraen]-15′-one 13′,13′-dioxide], in that order: 9.68 and 6.66.
On to `CO[C@@]1(CN2CCN3CCCC[C@@H]3C2)/C=C/C[C@H](C)[C@@H](C)S(=O)(=O)NC(=O)c2ccc3c(n2)N(C[C@@H]2CC[C@H]21)C[C@@]1(CCCc2cc(Cl)ccc21)CO3` [Example 372, (1S,3′R,6′R,7′S,8′E,11′S,12′R)-6-chloro-7′-methoxy-11′,12′-dimethyl-7′-((9aR)-octahydro-2H-pyrido[1,2-a]pyrazin-2-ylmethyl)-3,4-dihydro-2H,15′H-spiro[naphthalene-1,22′-[20]oxa[13]thia[1,14,25]triazatetracyclo [14.7.2.0~3,6~.0~19,24~]pentacosa[8,16,18,24]tetraen]-15′-one 13′,13′-dioxide], for which the pIC50 in assay [1] (setting [3]) was 9.76; in assay [2] (setting [4]), 7.07.
In the case of `C[C@@H]1CS(=O)(=O)NC(=O)c2ccc3c(c2)N(C[C@@H]2CC[C@H]2[C@](O)(C2SCCCS2)/C=C/[C@@H]1C)C[C@@]1(CCCc2cc(Cl)ccc21)CO3` [Example 100566, (1S,3′R,6′R,7′S,8′E,10′S,11′S)-6-chloro-7′-(1,3-dithian-2-yl)-7′-hydroxy-10′,11′-dimethyl-3,4-dihydro-2H,15′H-spiro[naphthalene-1,22′-[20]oxa[13]thia[1,14]diazatetracyclo [14.7.2.0~3,6~.0~19,24~]pentacosa[8,16,18,24]tetraen]-15′-one 13′,13′-dioxide], the negative-log IC50 (pIC50) in assay [1] (setting [5]) was 9.85; in assay [2] (setting [6]), 6.23.
On the same counts, the results for `CC(C)C[C@]1(O)/C=C/C[C@H](C)[C@@H](C)S(=O)(=O)NC(=O)c2ccc3c(c2)N(C[C@@H]2CC[C@H]21)C[C@@]1(CCCc2cc(Cl)ccc21)CO3` [Example 100224, (1S,3′R,6′R,7′S,8′E,11′S,12′R)-6-chloro-7′-hydroxy-11′,12′-dimethyl-7′-(2-methylpropyl)-3,4-dihydro-2H,15′H-spiro[naphthalene-1,22′-[20]oxa[13]thia[1,14]diazatetracyclo [14.7.2.0~3,6~.0~19,24~]pentacosa[8,16,18,24]tetraen]-15′-one 13′,13′-dioxide] are 9.46 and 6.41.
For `C[C@@H]1[C@@H](C)C/C=C/[C@@](O)(CC(=O)N2CCCCC2)[C@@H]2CC[C@H]2CN2C[C@@]3(CCCc4cc(Cl)ccc43)COc3ccc(cc32)C(=O)NS1(=O)=O` [Example 100258, (1S,3′R,6′R,7′S,8′E,11′S,12′R)-6-chloro-7′-hydroxy-11′,12′-dimethyl-7′-(2-oxo-2-(1-piperidinyl)ethyl)-3,4-dihydro-2H,15′H-spiro[naphthalene-1,22′-[20]oxa[13]thia[1,14]diazatetracyclo [14.7.2.0~3,6~.0~19,24~]pentacosa[8,16,18,24]tetraen]-15′-one 13′,13′-dioxide], the results for the pIC50 in assay [1] (setting [5]) and in assay [2] (setting [7]) were 9.26 and 6.28, respectively.
For the compound `CO[C@]1(CN2CCN(C(C)C)C(=O)C2)/C=C/C[C@H](C)[C@@H](C)S(=O)(=O)NC(=O)c2ccc3c(c2)N(C[C@@H]2CC[C@H]21)C[C@@]1(CCCc2cc(Cl)ccc21)CO3` [Example 323, (1S,3′R,6′R,7′R,8′E,11′S,12′R)-6-chloro-7′-methoxy-11′,12′-dimethyl-7′-((4-(1-methylethyl)-3-oxo-1-piperazinyl)methyl)-3,4-dihydro-2H,15′H-spiro[naphthalene-1,22′-[20]oxa[13]thia[1,14]diazatetracyclo [14.7.2.0~3,6~.0~19,24~]pentacosa[8,16,18,24]tetraen]-15′-one 13′,13′-dioxide], the pIC50 in assay [1] (setting [3]) was 9.78; in assay [2] (setting [4]), 6.77.
For the compound `C[C@@H]1[C@@H](C)CCC[C@@](O)(CS(=O)(=O)N(C)C)[C@@H]2CC[C@H]2CN2C[C@@]3(CCCc4cc(Cl)ccc43)COc3ccc(cc32)C(=O)NS1(=O)=O` [Example 100100, 1-((1S,3′R,6′R,7′S,11′S,12′R)-6-chloro-7′-hydroxy-11′,12′-dimethyl-13′,13′-dioxido-15′-oxo-3,4-dihydro-2H-spiro[naphthalene-1,22′-[20]oxa[13]thia[1,14]diazatetracyclo [14.7.2.0~3,6~.0~19,24~]pentacosa[16,18,24]trien]-7′-yl)-N,N-dimethylmethanesulfonamide], the pIC50 in assay [1] was 8.68; in assay [2] (setting [7]), 5.88.
As for `C[C@@H]1[C@@H](C)CCC[C@@](O)(CCN2CC(F)(F)C2)[C@@H]2CC[C@H]2CN2C[C@@]3(CCCc4cc(Cl)ccc43)COc3ccc(cc32)C(=O)NS1(=O)=O` [Example 100094, (1S,3′R,6′R,7′R,11′S,12′R)-6-chloro-7′-(2-(3,3-difluoro-1-azetidinyl)ethyl)-7′-hydroxy-11′,12′-dimethyl-3,4-dihydro-2H,15′H-spiro[naphthalene-1,22′-[20]oxa[13]thia[1,14]diazatetracyclo [14.7.2.0~3,6~.0~19,24~]pentacosa[16,18,24]trien]-15′-one 13′,13′-dioxide], the figures for the pIC50 in assay [1] (setting [5]) and in assay [2] (setting [7]) were 8.42 and 5.36, respectively.
Regarding `C[C@@H]1[C@@H](C)C/C=C/[C@@](C)(OCc2cc(F)cc(F)c2)[C@@H]2CC[C@H]2CN2C[C@@]3(CCCc4cc(Cl)ccc43)COc3ccc(cc32)C(=O)NS1(=O)=O` (single isomer, unassigned) [Example 100474], the pIC50 in assay [1] (setting [5]) was 9.39; in assay [2] (setting [6]) it was 6.41.
On to `C=C(C)[C@@H](O)C[C@]1(OC)/C=C/C[C@H](C)[C@@H](C)S(=O)(=O)NC(=O)c2ccc3c(c2)N(C[C@@H]2CC[C@H]21)C[C@@]1(CCCc2cc(Cl)ccc21)CO3` [Example 100471, (1S,3′R,6′R,7′S,8′E,11′S,12′R)-6-chloro-7′-((2S)-2-hydroxy-3-methyl-3-buten-1-yl)-7′-methoxy-11′,12′-dimethyl-3,4-dihydro-2H,15′H-spiro[naphthalene-1,22′-[20]oxa[13]thia[1,14]diazatetracyclo [14.7.2.0~3,6~.0~19,24~]pentacosa[8,16,18,24]tetraen]-15′-one 13′,13′-dioxide], for which the pIC50 was 9.55 in assay [1] and 6.52 in assay [2] (setting [7]).
In the case of `CO[C@@]1(CN2CCc3ccccc3C2)/C=C/C[C@H](C)[C@@H](C)S(=O)(=O)NC(=O)c2ccc3c(c2)N(C[C@@H]2CC[C@H]21)C[C@@]1(CCCc2cc(Cl)ccc21)CO3` [Example 148, (1S,3′R,6′R,7′S,8′E,11′S,12′R)-6-chloro-7′-(3,4-dihydro-2(1H)-isoquinolinylmethyl)-7′-methoxy-11′,12′-dimethyl-3,4-dihydro-2H,15′H-spiro[naphthalene-1,22′-[20]oxa[13]thia[1,14]diazatetracyclo [14.7.2.0~3,6~.0~19,24~]pentacosa[8,16,18,24]tetraen]-15′-one 13′,13′-dioxide], the pIC50 in assay [1] (setting [3]) was 8.92; in assay [2] (setting [4]), 5.79.
